Test [1] has as its system spontaneously hypertensive rats. In words: Systolic blood pressure lowering in spontaneously hypertensive rats. Type of test: in vivo, rat. The method, then:
The in vivo blood pressure lowering ability of the compounds of this invention was established by measuring the systolic pressure of spontaneously hypertensive rats with a Decker Caudal Plethysmograph or similar sensor device. The compound being tested is administered to groups of four rats and their blood pressure is read prior to compound administration and at 1.5 and 4 hours after compound administration. Depending upon the behavior of the compound being tested, the schedule of blood pressure readings and route of administration is modified. Initially the compounds are administered orally but where compound solubility is a factor, the compounds may be administered parenterally (i.e. i.p., i.m., s.c., i.v., etc.) as desired. The compounds of this invention were initially administered orally at a standard testing dose of 50 mg/kg., and where appropriate, smaller doses were administered to obtain a potency profile.
(§1) The following examples illustrate the preparation of a representative number of compounds of this invention. After each example, the Ca^+2 antagonist activity of the compound is presented in terms of percent relaxation (P.R.) at the stated concentration. Similarly, the antihypertensive activity is reported in terms of millimeters mercury (mmHg) blood pressure (B.P.) reduction at the stated time post oral dosing with the reported amount of compound.

The next test deals with rabbit aortic strips. As to the kind of experiment: Ca+2 antagonism: relaxation of potassium-contracted rabbit aortic strips. It counts as cell-based. The following applies: Oryctolagus cuniculus, strips contracted with 100 millimoles potassium ion, read-out: percent relaxation (P.R.); for inhibition at 1 µM: 10^-6 M bath concentration; for inhibition at 10 µM: 10^-5 M bath concentration. The method, then: After a stable active tension has developed in the strip, as measured by Statham UC-2 force transducers and recorded on an eight channel Beckman Dynograph Polygraphic Recorder, an amount of the antagonist was added to the organ bath to make a 10^-5 molar concentration of antagonist. The depressant effect, expressed as percent relaxation, was taken from the mean of at least two experiments. […] A Ca^+2 antagonist producing a 20 percent relaxation of aortic tissue in this test procedure at a 10^-5 molar bath concentration of the antagonist, generally produced a significant reduction in blood pressure when a sufficient amount is given to the spontaneously hypertensive rat.
as §1

We go through three molecules from patent US4365063A, “Antihypertensive agents” (American Home Products Corporation, priority 1981, dated 1982).

Regarding `COC(=O)C1=C(C)NC2=C(C(=O)CN(Cc3ccccc3)C2)C1c1c(F)c(F)c(F)c(F)c1F` (centres unmarked) [Example 2, 1,4,5,6,7,8-Hexahydro-2-methyl-5-oxo-4-(2,3,4,5,6-pentafluorophenyl)-7-(phenylmethyl)-1,7-naphthyridine-3-carboxylic Acid Methyl Ester], the “blood pressure (B.P.) reduction” value in test [1] (50 mg/kg oral, at 1.5 hours) was -20 mmHg; in test [1] (50 mg/kg oral, at 4 hours), -23 mmHg. In addition, in the test on rabbit aortic strips, the inhibition at 1 µM was 56%.
On to `COC(=O)C1=C(C)NC2=C(C(=O)CN(C)C2)C1c1c(F)c(F)c(F)c(F)c1F` (centres unmarked) [Example 1, 1,4,5,6,7,8-Hexahydro-2,7-dimethyl-4-[2,3,4,5,6-pentafluorophenyl]-5-oxo-1,7-naphthyridine-3-carboxylic Acid Methyl Ester], for which the “blood pressure (B.P.) reduction” value is -21 mmHg in test [1] (5 mg/kg oral, at 1.5 hours); -10 mmHg in test [1] (5 mg/kg oral, at 4 hours); -63 mmHg in test [1] (10 mg/kg oral, at 1.5 hours); -31 mmHg in test [1] (10 mg/kg oral, at 4 hours); -71 mmHg in test [1] (25 mg/kg oral, at 1.5 hours); -49 mmHg in test [1] (25 mg/kg oral, at 4 hours). Besides, the “blood pressure (B.P.) reduction” value in test [1] (50 mg/kg oral, at 1.5 hours) was -95 mmHg; in test [1] (50 mg/kg oral, at 4 hours), -89 mmHg. Besides, the inhibition at 10 µM with rabbit aortic strips was 22.9%.
Take `COC(=O)C1=C(C)NC2=C(C(=O)CNC2)C1c1c(F)c(F)c(F)c(F)c1F` (centres unmarked) [Example 3, 1,4,5,6,7,8-Hexahydro-2-methyl-5-oxo-4-(2,3,4,5,6-pentafluorophenyl)-1,7-naphthyridine-3-carboxylic Acid Methyl Ester]: the “blood pressure (B.P.) reduction” value is listed as -34 mmHg in test [1] (2.5 mg/kg oral, at 1.5 hours); -30 mmHg in test [1] (2.5 mg/kg oral, at 4 hours); -48 mmHg in test [1] (5 mg/kg oral, at 1.5 hours); -36 mmHg in test [1] (5 mg/kg oral, at 4 hours); -79 mmHg in test [1] (10 mg/kg oral, at 1.5 hours); -24 mmHg in test [1] (10 mg/kg oral, at 4 hours). Further, the “blood pressure (B.P.) reduction” value in test [1] (25 mg/kg oral, at 1.5 hours) is listed as -76 mmHg; in test [1] (50 mg/kg oral, at 1.5 hours), -64 mmHg; in test [1] (50 mg/kg oral, at 4 hours) it was -88 mmHg. Also, the inhibition at 10 µM with rabbit aortic strips stood at 78.7%. The inhibition at 1 µM in the test on rabbit aortic strips was 65.2%.
